Results on one molecule are retold here after US5508180A, “Biocatalytic oxidation using soybean peroxidase” (Enzymol International, Inc., priority 1994, dated 1996).

The target of this assay is T1, soybean peroxidase (Glycine max, UniProt O22443).
T1 construct: secreted heme glycoprotein, reported 37 kDa
Put plainly: N-demethylation of N,N-dimethylanthranilic acid methyl ester by soybean peroxidase. It is filed as biochemical. The procedure: N,N-Dimethylanthranilic acid methyl ester (DMA) and the product of N-demethylation, N-methylanthranilic acid methyl ester (NMA), were purchased from TCI America (Portland, Oreg.). […] Using 1 g. (5mM) DMA in 25 mM acetate, pH 4.5, 120 ppu SBP and 1 mM H202, the increases observed were: 295 nm - 0.727 AU per min; 379 nm -0.403 AU per min. To optimize N-demethylation, the effect of pH was studied using 25 mM buffers at the appropriate pH.

T1 sequence (O22443 27-332): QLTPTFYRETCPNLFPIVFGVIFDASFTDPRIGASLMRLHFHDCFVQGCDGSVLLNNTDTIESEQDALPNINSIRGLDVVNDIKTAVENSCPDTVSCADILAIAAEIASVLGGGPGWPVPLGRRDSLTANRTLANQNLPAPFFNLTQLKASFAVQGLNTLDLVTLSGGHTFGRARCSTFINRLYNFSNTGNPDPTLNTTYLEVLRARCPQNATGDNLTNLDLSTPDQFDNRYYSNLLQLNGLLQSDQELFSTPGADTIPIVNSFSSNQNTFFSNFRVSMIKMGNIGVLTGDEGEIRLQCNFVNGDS

Take `COC(=O)c1ccccc1N(C)C` [DMA, N,N-Dimethylanthranilic acid methyl ester]: the “increase in absorbance at 295 nm” value (5mM DMA, 25 mM acetate pH 4.5, 120 ppu SBP, 1 mM H2O2) stood at 0.727 AU per min. Moreover, the “dA per min at 379 nm” value is on record as 0.005 (pH 1, 25 mM buffer); 0.2603 (pH 2, 25 mM buffer); 0.099 (pH 3, 25 mM buffer); 0.181 (pH 4, 25 mM buffer); 0.2401 (pH 5, 25 mM buffer); 0.1095 (pH 6, 25 mM buffer). The “dA per min at 379 nm” value (pH 7, 25 mM buffer) amounted to 0.0065.
